Assay results reported in the NIST ThermoML archive (doi:10.1021/je034041x).
Numbers after ± are expanded uncertainties.

What was measured:
[1] = xn = mol fraction of the nth substance listed; settings: Liquid
[2] = Liquid

**Q.** With O=C=O [carbon dioxide] + O as the molecule, how does the viscosity ([1]; 273.9 K, 670 kPa, x1 = 0.00869) read?
**A.** 1.855 ± 0.12 mPa·s

**Q.** And the viscosity ([1]; 274.2 K, 4630 kPa, x1 = 0.00295)?
**A.** 2.827 ± 0.18 mPa·s

**Q.** And the viscosity ([1]; 274.3 K, 670 kPa, x1 = 0.00857)?
**A.** 1.851 ± 0.12 mPa·s

**Q.** What about the viscosity ([1]; 274.5 K, 670 kPa, x1 = 0.0085) of the same molecule?
**A.** 1.839 ± 0.12 mPa·s

**Q.** And the viscosity ([1]; 274.6 K, 4610 kPa, x1 = 0.00294)?
**A.** 2.951 ± 0.19 mPa·s

**Q.** And the viscosity ([1]; 274.7 K, 670 kPa, x1 = 0.00844)?
**A.** 1.818 ± 0.12 mPa·s

**Q.** What about the viscosity ([1]; 275 K, 670 kPa, x1 = 0.00834) of the same molecule?
**A.** 1.794 ± 0.12 mPa·s

**Q.** And the viscosity ([1]; 275.1 K, 670 kPa, x1 = 0.00831)?
**A.** 1.807 ± 0.12 mPa·s

**Q.** What about the viscosity ([1]; 275.3 K, 670 kPa, x1 = 0.00824) of the same molecule?
**A.** 1.771 ± 0.12 mPa·s

**Q.** What about the viscosity ([1]; 275.6 K, 690 kPa, x1 = 0.00815) of the same molecule?
**A.** 1.739 ± 0.11 mPa·s

**Q.** What about the viscosity ([1]; 275.9 K, 690 kPa, x1 = 0.00805) of the same molecule?
**A.** 1.705 ± 0.11 mPa·s

**Q.** What about the viscosity ([1]; 276 K, 690 kPa, x1 = 0.00802) of the same molecule?
**A.** 1.694 ± 0.11 mPa·s

**Q.** And the viscosity ([1]; 276.1 K, 4780 kPa, x1 = 0.00291)?
**A.** 2.225 ± 0.14 mPa·s

**Q.** And the viscosity ([1]; 276.3 K, 4790 kPa, x1 = 0.00291)?
**A.** 2.179 ± 0.14 mPa·s

**Q.** And the viscosity ([1]; 276.4 K, 690 kPa, x1 = 0.00789)?
**A.** 1.647 ± 0.11 mPa·s

**Q.** What about the viscosity ([1]; 276.5 K, 4810 kPa, x1 = 0.0029) of the same molecule?
**A.** 2.171 ± 0.14 mPa·s

**Q.** And the viscosity ([1]; 276.7 K, 690 kPa, x1 = 0.00779)?
**A.** 1.605 ± 0.11 mPa·s

**Q.** And the viscosity ([1]; 277.1 K, 690 kPa, x1 = 0.00766)?
**A.** 1.604 ± 0.1 mPa·s

**Q.** What about the viscosity ([1]; 277.5 K, 690 kPa, x1 = 0.00754) of the same molecule?
**A.** 1.57 ± 0.1 mPa·s

**Q.** And the viscosity ([1]; 277.7 K, 4850 kPa, x1 = 0.00287)?
**A.** 2.078 ± 0.14 mPa·s

**Q.** And the viscosity ([1]; 278.6 K, 4890 kPa, x1 = 0.00285)?
**A.** 1.948 ± 0.13 mPa·s

**Q.** What about the viscosity ([1]; 279.1 K, 710 kPa, x1 = 0.00702) of the same molecule?
**A.** 1.438 ± 0.094 mPa·s

**Q.** What about the viscosity ([1]; 279.3 K, 710 kPa, x1 = 0.00695) of the same molecule?
**A.** 1.44 ± 0.094 mPa·s

**Q.** What about the viscosity ([1]; 279.6 K, 4910 kPa, x1 = 0.00283) of the same molecule?
**A.** 1.848 ± 0.12 mPa·s

**Q.** What about the viscosity ([1]; 281 K, 710 kPa, x1 = 0.00641) of the same molecule?
**A.** 1.367 ± 0.089 mPa·s

**Q.** And the viscosity ([1]; 281 K, 4910 kPa, x1 = 0.0028)?
**A.** 1.728 ± 0.11 mPa·s

**Q.** And the viscosity ([1]; 281.8 K, 769 kPa, x1 = 0.00615)?
**A.** 1.225 ± 0.08 mPa·s

**Q.** And the viscosity ([1]; 282.1 K, 729 kPa, x1 = 0.00605)?
**A.** 1.267 ± 0.082 mPa·s

**Q.** What about the viscosity ([1]; 282.1 K, 4920 kPa, x1 = 0.00277) of the same molecule?
**A.** 1.539 ± 0.1 mPa·s

**Q.** And the viscosity ([1]; 282.2 K, 4870 kPa, x1 = 0.00277)?
**A.** 1.576 ± 0.1 mPa·s

**Q.** What does the source list for O [water]?
**A.** viscosity ([2]; 273.9 K, 670 kPa): 1.833 ± 0.12 mPa·s; viscosity ([2]; 274.2 K, 4630 kPa): 1.802 ± 0.12 mPa·s; viscosity ([2]; 274.3 K, 670 kPa): 1.827 ± 0.12 mPa·s; viscosity ([2]; 274.5 K, 670 kPa): 1.808 ± 0.12 mPa·s; viscosity ([2]; 274.6 K, 4610 kPa): 1.804 ± 0.12 mPa·s; viscosity ([2]; 274.7 K, 670 kPa): 1.774 ± 0.12 mPa·s; viscosity ([2]; 275 K, 670 kPa): 1.737 ± 0.12 mPa·s; viscosity ([2]; 275.1 K, 670 kPa): 1.725 ± 0.11 mPa·s; viscosity ([2]; 275.3 K, 670 kPa): 1.705 ± 0.11 mPa·s; viscosity ([2]; 275.6 K, 690 kPa): 1.683 ± 0.11 mPa·s; viscosity ([2]; 275.9 K, 101.3 kPa): 1.64 ± 0.11 mPa·s; viscosity ([2]; 275.9 K, 690 kPa): 1.66 ± 0.11 mPa·s; viscosity ([2]; 276 K, 690 kPa): 1.652 ± 0.11 mPa·s; viscosity ([2]; 276.1 K, 101.3 kPa): 1.637 ± 0.11 mPa·s; viscosity ([2]; 276.1 K, 4780 kPa): 1.67 ± 0.11 mPa·s; viscosity ([2]; 276.3 K, 101.3 kPa): 1.631 ± 0.11 mPa·s; viscosity ([2]; 276.3 K, 4790 kPa): 1.652 ± 0.11 mPa·s; viscosity ([2]; 276.4 K, 690 kPa): 1.622 ± 0.11 mPa·s; viscosity ([2]; 276.5 K, 4810 kPa): 1.634 ± 0.11 mPa·s; viscosity ([2]; 276.7 K, 101.3 kPa): 1.594 ± 0.11 mPa·s; viscosity ([2]; 276.7 K, 690 kPa): 1.613 ± 0.11 mPa·s; viscosity ([2]; 276.9 K, 101.3 kPa): 1.588 ± 0.1 mPa·s; viscosity ([2]; 277.1 K, 690 kPa): 1.589 ± 0.1 mPa·s; viscosity ([2]; 277.2 K, 101.3 kPa): 1.555 ± 0.1 mPa·s; viscosity ([2]; 277.5 K, 690 kPa): 1.558 ± 0.1 mPa·s; viscosity ([2]; 277.7 K, 4850 kPa): 1.459 ± 0.096 mPa·s; viscosity ([2]; 278.3 K, 101.3 kPa): 1.491 ± 0.098 mPa·s; viscosity ([2]; 278.6 K, 4890 kPa): 1.459 ± 0.095 mPa·s; viscosity ([2]; 279.1 K, 710 kPa): 1.442 ± 0.094 mPa·s; viscosity ([2]; 279.3 K, 101.3 kPa): 1.437 ± 0.094 mPa·s; viscosity ([2]; 279.3 K, 710 kPa): 1.428 ± 0.094 mPa·s; viscosity ([2]; 279.6 K, 4910 kPa): 1.425 ± 0.093 mPa·s; viscosity ([2]; 279.9 K, 101.3 kPa): 1.405 ± 0.092 mPa·s; viscosity ([2]; 281 K, 710 kPa): 1.357 ± 0.089 mPa·s; viscosity ([2]; 281 K, 4910 kPa): 1.375 ± 0.09 mPa·s; viscosity ([2]; 281.8 K, 769 kPa): 1.329 ± 0.087 mPa·s; viscosity ([2]; 282.1 K, 729 kPa): 1.319 ± 0.086 mPa·s; viscosity ([2]; 282.1 K, 4920 kPa): 1.338 ± 0.087 mPa·s; viscosity ([2]; 282.2 K, 101.3 kPa): 1.286 ± 0.084 mPa·s; viscosity ([2]; 282.2 K, 4870 kPa): 1.335 ± 0.087 mPa·s
